In US5310741A, “TAN-1251 compounds and their production from penicillium thomii” (Takeda Chemical Industries, Ltd., priority 1990, dated 1994):

What was measured:
[1] = format: physicochemical
Text: Below presented as the physicochemical properties of the respective species of TAN-1251 prepared in the Examples given hereinafter.

mice = test: Acute toxicity, oral administration in mice; format: in vivo; details: 100 mg/kg
Procedure: For assessment of the acute toxicity of TAN-1251, an oral administration experiment using TAN-1251A and B was performed in mice.

[2] = test system: acetylcholine-induced contraction of the isolated Guinea pig ileum; test: Antagonizing activity against acetylcholine-induced contraction of the isolated Guinea pig ileum; design: species or system Guinea pig (Std Hartley); details: Cavia porcellus, 5 min; acetylcholine 1×10^-7 M, 37° C., 5 minutes equilibration; read-out: Guinea pig ileal contractility ED50 (50% inhibition of the maximal contraction)
Procedure: (b) Antagonizing activity against acetylcholine-induced contraction of the isolated Guinea pig ileum
A Guinea pig (Std Hartley, male, 250 g, Japan SLC) deprived of food for 24 hours was subjected to brain concussion and after exsanguination from the carotid artery, the ileum was isolated. An ileal strip, about 3 cm long, was prepared and suspended in a Magnus tube containing 20 ml of Tyrode solution. At a constant bath temperature of 37° C., a mixed gas (95% O2 -5% CO2) was bubbled through the bath. The sample was added and after 5 minutes of equillibration, acetylcholine (Daiichi Seiyaku, Japan) was added at a final concentration of 1×10^-7 M to induce contraction of the ileal strip. The contraction was recorded through an isotonic transducer (ME-4013, Suruga Electronics, Japan) on a recorder (Rectiholy 8K, Japan Electronics Sanei, Japan). The activity of the same was expressed in ED50 representing 50% inhibition of the maximal contraction.

Muscarinic receptor = format: binding, Wistar rat; details: 3H-QNB radioligand, room temperature, 60 minutes; read-out: Radio receptor assay IC50

Row | SMILES | Properties (basicity and liposolubility) [1] | toxic signs (acute toxicity) (mice) | IC50 [2] [nM] | IC50 (Muscarinic receptor) [nM]
1 | CC(C)=CCOc1ccc(CC2=CN(C)C3CN2C2(CCC(=O)CC2)C3)cc1 (stereo not shown) [Compound 3] | Basic and liposoluble | – | – | –
2 | CC(C)=CCOc1ccc(C=C2CN(C)C3CN2C2(CCC(=O)C(O)C2)C3)cc1 (stereo not shown) [Compound 2] | Basic and liposoluble | no toxic signs were observed | 13 | 0.13
3 | CC(C)=CCOc1ccc(C=C2CN(C)C3CN2C2(CCC(=O)CC2)C3)cc1 (stereo not shown) [Compound 1] | Basic and liposoluble | no toxic signs were observed | 8 | 5.7
4 | CC(C)=CCOc1ccc(CC2CN(C)C3CN2C2(CCC(=O)CC2)C3)cc1 (stereo not shown) [Compound 4] | Basic and liposoluble | – | – | –
